The subject of data set [1] is SAg-specific hybridoma cells / T cell line with VAVY APC. The experiment in a line: Antigen Processing Independent Presentation System (APIPS) assay, fresh or fixed VAVY APC. The class given is cell-based, DR3 mice. Conditions: DR3 hybridoma clone (IL-2, 48 h) or T cell line (IFN-γ, 24 h). How it is done: (§1) FIG. 2: identification of apitopes within HIP-115. (A) DR3 mice were immunized with SAg and hybridomas were generated. 5×10^4 SAg-specific hybridoma cells were cultured with 5×10^4 fresh or fixed commercial APC (VAVY) cells. T cell proliferation was measured by IL-2 ELISA on supernatants collected after 48 h. The graph represents the mean of duplicate measurements±SEM. (B) DR3 mice were immunized with HIP-115 and a T cell line was established. Ten days after immunization the LN and spleens were harvested and cultured with different concentrations of peptide (0.1-1-2.5 and 5 μg/ml); 2×10^6 cells/ml APC+1×10^6 cells/ml CD4 T cells per well. At day 7 the cells were re-stimulated with the same concentrations of peptide. On day 14 an APIPS test was done using commercial APC (VAVY). After 24 h, antigen-induced T cell activation was measured by IFN-γ ELISA and shown as IFN-γ concentration (pg/ml). The graph represents the mean of duplicate measurements±SEM. LN, lymph nodes; APC, Antigen presenting cell; APIPS, Antigen Processing Independent Presentation System.
as §1, with “3:” for “2:”, “HIP-241125.” for “HIP-115.”, “HIP-241125+HIP-24DG” for “HIP-115”
(§2) FIG. 5: Identification of apitopes within HIP-17GN. DR3 mice were immunized with HIP-17GN and a T cell line was established. Ten days after immunization the LN and spleens were harvested and cultured with different concentrations of peptide (0.1-1-2.5 and 5 μg/ml); 2×10^6 cells/ml APC+1×10^6 cells/ml CD4 T cells per well. At day 7 the cells were re-stimulated with the same concentrations of peptide. On day 14 an APIPS test was done using commercial APC (VAVY). After 24 h, antigen-induced T cell activation was measured by IFN-γ ELISA and shown as OD values. The graph represents the mean of triplicate measurements±SEM. LN, lymph nodes; APC, Antigen presenting cell; APIPS, Antigen Processing Independent Presentation System.
as §2, with “6:” for “5:”, “HIP-12AK.” for “HIP-17GN.”, “HIP-12AK” for “HIP-17GN”, “IFN-γ concentration (pg/ml).” for “OD values.”, “duplicate” for “triplicate”
Antigen-specific clones or TCL were tested for their reactivity to the peptides, presented by fixed or not fixed (fresh) cells (VAVY or MGAR) (=APCs). 5×10^4 cells from the individual clones were cultured with 10 μg/ml peptide and 5×10^4 fixed or fresh APCs. […]

Data set [2] concerns LN cells and splenocytes upon SAg or peptide restimulation. The experiment in a line: Ex vivo tolerization experiment, DR3tg mice. Conditions: DR3 mice, IFN-γ; for tolerization against SAg: escalating dose regime s.c. It counts as in vivo. How it is done:
FIG. 7: Ex vivo tolerisation protocol. Mice are injected subcutaneously in the flank with 0.1 μg/ml, 1 μg/ml and 10 μg/ml peptide on days −15, −13 and −11, followed by 3 injections of 100 μg/ml on days −8, −6 and −4 (escalating dose regime). On day 0, mice are immunized subcutaneously at the base of the tail with SAg/CFA or peptide/CFA. Mice are sacrificed 10 days after immunization to measure proliferation of LN cells and splenocytes upon SAg or peptide restimulation. LN, lymph nodes.
FIG. 8: Ex vivo tolerance induction by HIP-115NE3-KKK apitope. DR3 mice are injected subcutaneously in the flank with 0.1 μg/ml, 1 μg/ml and 10 μg/ml HIP-115NE3-KKK on days −15, −13 and −11, followed by 3 injections of 100 μg/ml on days −8, −6 and −4 (escalating dose regime). On day 0, mice are immunized subcutaneously at the base of the tail with HIP-115/CFA. Mice are sacrificed 10 days after immunization to measure proliferation of LN cells and splenocytes upon SAg or peptide restimulation. Data represent mean±SEM of the concentration or OD values for the PBS-treated mice (black lines) and peptide-treated mice (color lines). Two-way ANOVA was used to measure overall treatment effects on T cell activation and p-values are written in the graphs. Bonferonni post-hoc testing was used and significant differences are indicated in the graphs (* p<0.05; **** p<0.0001). LN, lymph nodes. (A) Tolerisation against SAg in LN. IFN-γ production expressed as IFN-γ concentration (pg/ml). (B) Tolerisation against SAg in spleen. IFN-γ production expressed as IFN-γ concentration (pg/ml). (C) Tolerisation against HIP-115 and HIP-115NE3 peptides in LN. IFN-γ production expressed as OD values. (D) Tolerisation against HIP-115 and HIP-115NE3 peptides in spleen. IFN-γ production expressed as OD values.
FIG. 9: Ex vivo tolerance induction by HIP-11B apitope. DR3 mice are injected subcutaneously in the flank with 0.1 μg/ml, 1 μg/ml and 10 μg/ml HIP-11B on days −15, −13 and −11, followed by 3 injections of 100 μg/ml on days −8, −6 and −4 (escalating dose regime). On day 0, mice are immunized subcutaneously at the base of the tail with HIP-11B/CFA. Mice are sacrificed 10 days after immunization to measure proliferation of LN cells and splenocytes upon SAg or peptide restimulation. Data represent mean±SEM of the concentration values for the PBS-treated mice (black lines) and peptide-treated mice (color lines). IFN-γ production expressed as IFN-γ concentration (pg/ml). Two-way ANOVA was used to measure overall treatment effects on T cell activation and p-values are written in the graphs. Bonferonni post-hoc testing was used and significant differences are indicated in the graphs (* p<0.05; **** p<0.0001). LN, lymph nodes. (A) Tolerisation against SAg in LN. (B) Tolerisation against SAg in spleen. (C) Tolerisation against HIP-11B peptide in LN. (D) Tolerisation against HIP-11B peptide in spleen.
FIG. 10: Ex vivo tolerance induction by HIP-24DG apitope. DR3 mice are injected subcutaneously in the flank with 0.1 μg/ml, 1 μg/ml and 10 μg/ml HIP-24DG on days −15, −13 and −11, followed by 3 injections of 100 μg/ml on days −8, −6 and −4 (escalating dose regime). On day 0, mice are immunized subcutaneously at the base of the tail with HIP-24DG+HIP-24HM/CFA. Mice are sacrificed 10 days after immunization to measure proliferation of LN cells and splenocytes upon SAg or peptide restimulation. Data represent mean±SEM of the OD values for the PBS-treated mice (black lines) and peptide-treated mice (color lines). IFN-γ production expressed as OD values. LN, lymph nodes. Two-way ANOVA was used to measure overall treatment effects on T cell activation and p-values are written in the graphs. Bonferonni post-hoc testing was used and significant differences are indicated in the graphs (* p<0.05; ** p<0.01; *** p<0.001: **** p<0.0001). LN, lymph nodes. (A) Tolerisation against SAg in LN. (B) Tolerisation against HIP-24DG in LN. (C) Tolerisation against HIP-24HM2 peptide in LN. […]

Another data set in a line: Solubility of peptides. The class given is physicochemical. How it is done: The solubility of potential apitopes from S—Ag are determined by visual observations and turbidity measurement by UV spectrophotometry at 280 nm. The solubility of the peptides can be modified by adding amino acids ‘GKK’ or ‘KKK’ (or similar) on both the C- and N-terminus of the sequence. Modifications that may be suitable are described in WO2014/072958 (which is hereby incorporated by reference).
For some of these peptides, the parental peptides were insoluble, and solubility is a critical parameter for them to work as a tolerogenic peptide. Several end-terminal modifications can be used and as example used here they were improved by addition of 3 lysines before and after the original peptide sequence (labelled as ‘-KKK’ versions).

Ends that are not written are not given here.

Turning to “ERRGIALDGKIKH-NH2 [HIP-11AC1, ERRGIALDGKIKH]”, the “behaves as apitope (response to peptide presented by fresh or fixed APC)” value (from here on “behaves as apitope”) in data set [1] is recorded as “behave as apitopes”.

Regarding “FKKISRDKSVTIY-NH2 [HIP-115NE2, FKKISRDKSVTIY]”, the “behaves as apitope” value in data set [1] was “behave as apitopes”.

On to GILVSYQIKVK-NH2 [HIP-12G1, GILVSYQIKVK], for which the “behaves as apitope” value in data set [1] is given as “behave as apitopes”.

In the case of “HIP-17K1-KKK: '-KKK' version (3 lysines before and after the sequence) of HIP-17K1; its sequence is not printed (KKKTFRRDLYFSRVQKKK)”, in data set [1], the “behaves as apitope” value is recorded as “behave as apitopes”.

Take “HVIFKKISRDKSVTIYLGN-NH2 [HIP-115NE, HVIFKKISRDKSVTIYLGN]”: in data set [1], the “behaves as apitope” value is on record as “behave as apitopes”.

Regarding “KKISRDKSVTI-NH2 [HIP-115NE1, KKISRDKSVTI]”, in data set [1], the “behaves as apitope” value is on record as “behave as apitopes”.

For “KKKVIGLTFRRDLYFSRVQVYPPVGKKK-NH2 [HIP-17GN-KKK]”, in data set [1], the “behaves as apitope” value was “behave as apitopes”. For the same substance, in data set [2] (spleen), the “tolerization against SAg” value was “tolerization induced”.

In the case of KKKVLGILVSYQIKVKLTKKK-NH2 [HIP-12E-KKK], the “behaves as apitope” value in data set [1] is on record as “behave as apitopes”.

For the substance “LTFRRDLYFSRVQVY-NH2 [HIP-17J, LTFRRDLYFSRVQVY]”, the “behaves as apitope” value in data set [1] is given as “behave as apitopes”.

For the substance LTLLPLLANNRERRGIALDG-NH2 [HIP-24HM], the “behaves as apitope” value in data set [1] was “behave as apitopes”.

Turning to “LTLLPLLANNRERRGIALDGKIKHEDTNLASSTIIKEG-NH2 [HIP-241125]”, the “behaves as apitope” value in data set [1] is “behave as apitopes”.

Turning to “NRERRGIALDGKIKHED-NH2 [HIP-11AC, NRERRGIALDGKIKHED]”, the “behaves as apitope” value in data set [1] is “behave as apitopes”.

Take “PLLANNRERRGI-NH2 [HIP-24HM2, PLLANNRERRGI]”: the “behaves as apitope” value in data set [1] was “behave as apitopes”. Moreover, in “Solubility of peptides”, the solubility entry is “soluble”.

Consider “RERRGIALDGKIKHE-NH2 [HIP-11B, RERRGIALDGKIKHE]”, for which the “behaves as apitope” value in data set [1] is recorded as “behave as apitopes”. In data set [2] (LN), the “tolerization against the peptide itself / peptides of the same region” value is “tolerization induced” and the “tolerization against SAg” value is listed as “tolerization induced”. In data set [2] (spleen), the “tolerization against the peptide itself” value is reported as “tolerization induced” and the “tolerization against SAg” value is on record as “tolerization induced”.

Consider VIGLTFRRDLYFSRVQVYPPVG-NH2 [HIP-17GN], for which the “behaves as apitope” value in data set [1] is “behave as apitopes”.
